Experiment [1] relates to NIK-mediated production of p52 (IKKα activity). Briefly: NIK-mediated non-canonical NF-κB activation (processing of p100 to p52). The settings on record: ectopic expression of NIK. Format: cell-based. From the text:
Since phosphorylation of p100 by IKKα is critical for NIK-mediated activation of the non-canonical NF-κB, we further investigated the effect of 223 on non-canonical NF-κB activation.

For a further experiment, the target named is T1, IKKβ Cys46 into serine (Homo sapiens, UniProt O14920, C46S).
T1 construct: Flag; made in house
T1 sequence (O14920 whole entry C46S): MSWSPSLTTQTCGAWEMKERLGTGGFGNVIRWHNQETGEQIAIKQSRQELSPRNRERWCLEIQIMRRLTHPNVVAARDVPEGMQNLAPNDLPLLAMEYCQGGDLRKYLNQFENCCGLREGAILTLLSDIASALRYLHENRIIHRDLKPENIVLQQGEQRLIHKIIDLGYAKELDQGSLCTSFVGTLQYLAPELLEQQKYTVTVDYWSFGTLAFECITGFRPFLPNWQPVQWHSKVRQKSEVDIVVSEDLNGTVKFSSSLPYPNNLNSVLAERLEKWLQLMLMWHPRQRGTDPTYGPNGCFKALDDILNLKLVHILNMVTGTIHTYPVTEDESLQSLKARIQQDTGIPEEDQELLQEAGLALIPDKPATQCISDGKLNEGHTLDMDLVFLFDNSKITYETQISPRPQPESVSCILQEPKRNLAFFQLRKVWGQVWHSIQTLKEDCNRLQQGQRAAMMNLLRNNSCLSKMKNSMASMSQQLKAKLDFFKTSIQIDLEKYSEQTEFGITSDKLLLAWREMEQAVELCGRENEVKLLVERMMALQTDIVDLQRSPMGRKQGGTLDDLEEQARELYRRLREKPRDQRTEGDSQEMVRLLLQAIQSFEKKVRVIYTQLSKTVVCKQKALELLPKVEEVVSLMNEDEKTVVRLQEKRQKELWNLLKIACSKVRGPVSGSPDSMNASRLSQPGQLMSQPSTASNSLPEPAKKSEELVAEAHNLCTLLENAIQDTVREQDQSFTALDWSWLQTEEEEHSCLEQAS
Briefly: Binding to Cys46-to-serine mutant.

The next experiment concerns the target TAB1 (Homo sapiens, UniProt Q15750). In words: Association with other NF-κB pathway proteins. The experiment is classed as binding.
The test system of experiment [2] is gastric adenocarcinoma BCG-823 cells. In words: Cancer cell survival. Format: cell-based, human.
Experiment [3] has as its system panel of structurally related kinases.
The test system of experiment [4] is phosphorylation of IκBα. In words: poly(I:C) (TLR3 ligand) triggered IκBα phosphorylation. Format: cell-based.
In experiment [5] the test system is IKKβ C215 containing peptides #3 and #4. Briefly: Peptide binding by MALDI-TOF. Set-up: species or system human.
Experiment [6] deals with IKKβ C46 containing peptide (#1, #2; amino acids 41-53). In words: Peptide binding by MALDI-TOF. Set-up: species or system human. How it is done: (§1) This peptide was tested for binding to 223 and probe by using MALDI-TOF (Matrix-Assisted […] Desorption/Ionization Time of Flight). m/z values at 2,047.978 and 2,479.259 were well matched with the calculated weights of #1+223 and #1+Probe, respectively. […] As expected, the peptide #2 containing amino acids 41-53 of human IKKβ interacted with both 223 and probe.

For experiment [7], the target named is T2, IKKβ C46 containing peptide (#1, #2; amino acids 41-53) (Homo sapiens, UniProt O14920).
T2 construct: encompasses amino acids 41-53 of human IKKβ; made in house; host or cells: chemical peptide synthesis
Briefly: Peptide binding by MALDI-TOF. How it is done: as §1

Experiment [8] has as its system production of NO in a mouse macrophage cell line RAW264.7. The following applies: RAW264.7 stimulated by LPS; previously shown (ref 22); cited from earlier work.
The subject of experiment [9] is phosphorylation of IκBα. Briefly: LPS induced NF-κB activation: IκBα phosphorylation in RAW264.7 cells (western blot). The experiment is classed as cell-based, mouse. For orientation: Immunoblotting shows a protein as a band on a membrane.
In experiment [10] the test system is peptides 1A, 2A, 1S and 2S (cysteine 46 replaced by alanine or serine). In words: Peptide binding by MALDI-TOF. Set-up: species or system human.

Chain of TAB1 (Q15750 whole entry, species assumed): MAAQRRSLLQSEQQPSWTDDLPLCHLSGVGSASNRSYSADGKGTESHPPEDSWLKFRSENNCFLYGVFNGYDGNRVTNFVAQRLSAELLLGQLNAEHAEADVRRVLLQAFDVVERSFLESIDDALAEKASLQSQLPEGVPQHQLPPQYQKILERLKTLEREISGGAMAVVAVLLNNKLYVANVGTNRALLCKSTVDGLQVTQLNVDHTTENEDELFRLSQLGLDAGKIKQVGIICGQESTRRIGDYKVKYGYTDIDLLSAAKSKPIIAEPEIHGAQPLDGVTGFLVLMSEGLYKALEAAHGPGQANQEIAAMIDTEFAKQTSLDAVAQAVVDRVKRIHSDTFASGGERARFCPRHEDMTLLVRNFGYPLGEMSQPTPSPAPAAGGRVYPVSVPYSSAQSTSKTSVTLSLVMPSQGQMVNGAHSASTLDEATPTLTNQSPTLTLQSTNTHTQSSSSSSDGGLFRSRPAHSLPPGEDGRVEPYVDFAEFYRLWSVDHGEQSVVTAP

Regarding `C=C1C(=O)O[C@@H]2[C@@H]3[C@@H](C[C@@]4(O)[C@]3(O)CC[C@]43C(=O)C[C@H]4C(=C)CC[C@H]5C(=C)C(=O)O[C@@H]5[C@H]43)C(=C)CC[C@@H]12` [Compound 223, (+)-Ainsliadimer A], in experiment [1], the “NIK-mediated production of p52” value is reported as “prevented”. For the same molecule, the “interaction with IKKβ Cys46 to serine mutant” value at IKKβ Cys46 into serine is listed as “abolished”. For the same molecule, the “association with TAB1” value on TAB1 is on record as “no association”. For the same molecule, the “inhibition of cell survival (cell viability by ATP levels)” value in experiment [2] (BCG-823, 48 hours) is on record as “dose response inhibition”. In addition, the cell death result in [2] (BCG-823, different concentration) is recorded as “Dramatic cell death”. The “selectivity against a panel of structurally related kinases” value in experiment [3] is “excellent selectivity”. Besides, the “phosphorylation of IκBα triggered by poly(I:C)” value in the experiment with phosphorylation of IκBα [4] is “markedly suppressed”. For the same molecule, in experiment [5], the “association with peptides #3 and #4” value was “no association”. Besides, the “interaction with peptide #2” value in [6] is “interacted”. The “binding to peptide #1” value in experiment [7] is reported as “could bind”. Moreover, the “inhibitory activity against the production of NO” value in experiment [8] is “inhibitory activity”. For the same molecule, the “inhibitory effect against LPS-induced NF-κB activation in comparison with BMS-345541” value in the experiment with phosphorylation of IκBα [9] (RAW264.7 cells) is “much stronger inhibitory effect”. Moreover, the “concentration that effectively blocks phosphorylation of IκBα” value with phosphorylation of IκBα [9] (RAW264.7 cells, pre-treatment, LPS for 10 or 20 minutes) is given as “about 8 μM”. Also, the “phosphorylation of IκBα” value in the experiment with phosphorylation of IκBα [9] (Raw 264.7 cells pre-incubated with 4 μM for 2 h, 20 ng/ml LPS, 20 minutes, western blot) was “effectively blocked”. Further, in [10], the “binding to peptides 1A, 2A, 1S and 2S” value was “lost the ability to bind”.

The values are drawn from patent US9670226B2, “Sesquiterpenoids” (National Institute of Biological Sciences, Beijing, priority 2014, dated 2017).
